This note sets out measurements from patent US8791144B2, “Substituted N-phenyl-1-(4-Pyridinyl)-1H-pyrazol-3-amines” (Janssen Pharmaceutica NV, priority 2009, dated 2014).

Data set [1] addresses hα7-wt nAChR (Homo sapiens, UniProt P36544). In words: Ca2+ flux imaging (FDSS): potentiation of the choline response. In kind it is cell-based. The note with it: Ca2+ assay as described in D.1, potentiation of choline response, hα7-wt nAChR; for EC50: read-out: Potency (pEC50) (converted); for Emax: read-out: % Efficacy. The protocol: • a) Assay Buffer • Hanks buffered saline solution (HBSS, Invitrogen, Belgium), supplemented with 10 mM HEPES (Invitrogen, Belgium), CaCl2 to a final concentration of 5 mM, 0.1% Bovine serum albumin (Sigma-Aldrich NV, Belgium). • b) Calcium-Sensitive Dye—Fluo-4AM • Fluo-4AM (Molecular Probes, USA) was dissolved in DMSO containing 10% Pluronic acid (Molecular Probes, USA) to give a stock solution which was diluted in assay buffer supplemented with 5 mM probenicid (Sigma, Aldrich NV, Belgium) to give a final concentration of 2 μM. • c) 384-Well Plates • Black 384 well plate black/clear plates, PDL pre-coated (Corning, Incorporated, USA) • d) Calcium Flux Measurement • A Functional drug screening system (FDSS, Hamamatsu) was used to measure intracellular free-calcium flux signals. Method
Monolayers of hα7-wt nAChR-expressing cells were grown in multi-well plates, in particular black-sided, transparent bottomed 384 well plates coated with poly-D-lysine for 24 hours prior to loading with a fluorescent calcium indicator, in a particular embodiment loading with fluo-4AM for up to 120 minutes.
PAM activity was detected in real time by applying the compounds to be tested to the loaded cells along with a α7 nicotinic receptor agonist during constant monitoring of cellular fluorescence in a FDSS. Compounds giving peak fluorescent responses greater than the response due to agonist alone, were considered to be α7 nAChR PAM's. In a particular embodiment, the α7 nicotinic receptor agonist was choline, a more particular embodiment choline applied at a sub-maximal concentration of 100 μM. In a further setting of the present invention the compounds to be tested were applied prior to the α7 nicotinic receptor agonist, in a particular embodiment up to 10 minutes prior to the agonist.
A control response to choline was calculated on each plate from the difference in peak in fluorescence in wells receiving either choline or assay buffer alone. Compounds of the present invention were tested at a concentration range from 0.01 μM to 30 μM. Compounds were considered to have an interesting activity when they potentiated the choline signal at least with 200% when tested at a concentration of 30 μM (the efficacy of 100 μM choline was defined as 100% in the absence of a PAM). An EC50 (or pEC50) was determined as a concentration relating to half the maximal effect, when a clear sigmoidal curve with top plateau was obtained.

hα7-wt nAChR, sequence (P36544 23-502): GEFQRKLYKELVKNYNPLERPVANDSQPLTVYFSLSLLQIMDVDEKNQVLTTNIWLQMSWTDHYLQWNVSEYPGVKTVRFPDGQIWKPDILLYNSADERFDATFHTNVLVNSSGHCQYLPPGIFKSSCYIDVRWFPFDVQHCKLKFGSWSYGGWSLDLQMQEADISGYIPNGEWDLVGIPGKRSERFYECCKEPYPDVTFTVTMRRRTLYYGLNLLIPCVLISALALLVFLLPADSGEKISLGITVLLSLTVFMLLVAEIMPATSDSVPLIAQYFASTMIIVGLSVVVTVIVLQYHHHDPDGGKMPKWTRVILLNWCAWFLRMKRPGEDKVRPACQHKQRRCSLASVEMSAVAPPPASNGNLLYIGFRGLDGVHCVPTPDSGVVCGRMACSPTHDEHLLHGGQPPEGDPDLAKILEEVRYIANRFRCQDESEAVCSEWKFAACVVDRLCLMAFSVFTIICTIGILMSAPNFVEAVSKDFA

The molecule `COC(=O)Cc1cc(Nc2cccc(OC(F)(F)F)c2)nn1-c1ccnc(C)c1` [Compound 109, 1-(2-methyl-4-pyridinyl)-3-[[3-(trifluoromethoxy)phenyl]amino]-1H-pyrazole-5-acetic acid methyl ester] registered a melting point of 115.8 °C. Moreover, the EC50 in data set [1] is 2 µM.

In the case of `CC[C@@H](O)Cc1cc(Nc2cc(Cl)cc(OC)c2)nn1-c1ccnc(C)c1` [Compound 62, (alphaR)-3-[(3-chloro-5-methoxyphenyl)amino]-alpha-ethyl-1-(2-methyl-4-pyridinyl)-1H-pyrazole-5-ethanol], the melting point is 121.9 °C. Further, the EC50 in data set [1] was 0.427 µM.

For the molecule `CC[C@@H](O)Cc1cc(Nc2cccc(Cl)c2F)nn1-c1ccnc(C)c1` [Compound 59, (alphaR)-3-[(3-chloro-2-fluorophenyl)amino]-alpha-ethyl-1-(2-methyl-4-pyridinyl)-1H-pyrazole-5-ethanol], the melting point was found to be 168.1 °C. Besides, the EC50 in data set [1] is 0.692 µM.

`Cc1cc(-n2nc(Nc3ccc(F)c(F)c3)cc2C)ccn1` [Compound 14, N-(3,4-difluorophenyl)-5-methyl-1-(2-methyl-4-pyridinyl)-1H-pyrazol-3-amine] yielded a melting point of 169.2 °C. For the same molecule, in data set [1], the EC50 is 3.39 µM.

For `CC[C@@H](O)Cc1cc(Nc2ccc(F)c(F)c2F)nn1-c1ccnc(C)c1` [Compound 13, (alphaR)-alpha-ethyl-1-(2-methyl-4-pyridinyl)-3-[(2,3,4-trifluorophenyl)amino]-1H-pyrazole-5-ethanol], the melting point came to 144.4 °C. The EC50 in data set [1] is 0.316 µM.

With `Cc1cc(-n2nc(Nc3cccc(C(F)(F)F)c3)cc2CC#N)ccn1` [Compound 40, 1-(2-methyl-4-pyridinyl)-3-[[3-(trifluoromethyl)phenyl]amino]-1H-pyrazole-5-acetonitrile], in data set [1], the EC50 was 4.37 µM.

Molecule `CC[C@@H](O)Cc1cc(Nc2cc(F)cc(Cl)c2)nn1-c1ccnc(C)c1` [Compound 60, (alphaR)-3-[(3-chloro-5-fluorophenyl)amino]-alpha-ethyl-1-(2-methyl-4-pyridinyl)-1H-pyrazole-5-ethanol] showed a melting point of 182.4 °C. The EC50 in data set [1] was 0.24 µM.

Molecule `Cc1cc(-n2nc(Nc3ccc4c(c3)OC(F)(F)O4)cc2CCCOCc2ccccc2)ccn1` [Compound 104, N-(2,2-difluoro-1,3-benzodioxol-5-yl)-1-(2-methyl-4-pyridinyl)-5-[3-(phenylmethoxy)propyl]-1H-pyrazol-3-amine] gave a melting point of 124.4 °C. Besides, in data set [1], the EC50 was 0.562 µM.

The molecule `COc1cc(Nc2cc(CC#N)n(-c3ccnc(C)c3)n2)cc(C(F)(F)F)c1` [Compound 3, 3-[[3-methoxy-5-(trifluoromethyl)phenyl]amino]-1-(2-methyl-4-pyridinyl)-1H-pyrazole-5-acetonitrile] yielded a melting point of 183.8 °C. In addition, in data set [1], the Emax turned out to be 930% and the EC50 is 1.95 µM.

With `Cc1cc(-n2nc(Nc3ccc(F)c(F)c3)cc2CCCOCc2ccccc2)ccn1` [Compound 32, N-(3,4-difluorophenyl)-1-(2-methyl-4-pyridinyl)-5-[3-(phenylmethoxy)propyl]-1H-pyrazol-3-amine], the melting point was determined as 108.2 °C. For the same molecule, in data set [1], the EC50 was 1.02 µM.

Consider `Cc1cc(-n2nc(Nc3cccc(OC(F)(F)F)c3)cc2COCc2ccccc2)ccn1` [Compound 122, 1-(2-methyl-4-pyridinyl)-5-[(phenylmethoxy)methyl]-N-[3-(trifluoromethoxy)phenyl]-1H-pyrazol-3-amine], for which the melting point turned out to be 139.8 °C. In addition, in data set [1], the EC50 is 0.372 µM.

As to `CNC(=O)Cc1cc(Nc2ccc(F)c(F)c2)nn1-c1ccnc(C)c1` [Compound 27, 3-[(3,4-difluorophenyl)amino]-N-methyl-1-(2-methyl-4-pyridinyl)-1H-pyrazole-5-acetamide], the melting point turned out to be 252.9 °C.

In the case of `CNC(=O)Cc1cc(Nc2ccc3c(c2)OC(F)(F)O3)nn1-c1ccnc(C)c1` [Compound 97, 3-[(2,2-difluoro-1,3-benzodioxol-5-yl)amino]-N-methyl-1-(2-methyl-4-pyridinyl)-1H-pyrazole-5-acetamide], the melting point turned out to be 271.2 °C. Besides, in data set [1], the EC50 is 2.51 µM.

`CC[C@@H](O)Cc1cc(Nc2cc(F)c(F)c(F)c2)nn1-c1ccnc(C)c1` [Compound 19, (alphaR)-alpha-ethyl-1-(2-methyl-4-pyridinyl)-3-[(3,4,5-trifluorophenyl)amino]-1H-pyrazole-5-ethanol] displayed a melting point of 170.4 °C. In data set [1], the Emax is 705% and the EC50 is 0.309 µM.

Consider `COc1cc(Nc2cc(CCCO)n(-c3ccnc(C)c3)n2)cc(C(F)(F)F)c1` [Compound 7, 3-[[3-methoxy-5-(trifluoromethyl)phenyl]amino]-1-(2-methyl-4-pyridinyl)-1H-pyrazole-5-propanol], for which the EC50 in data set [1] was 2.88 µM.

`Cc1cc(-n2nc(Nc3ccc(F)c(F)c3)cc2CO)ccn1` [Compound 15, 3-[(3,4-difluorophenyl)amino]-1-(2-methyl-4-pyridinyl)-1H-pyrazole-5-methanol] registered a melting point of 155.3 °C. In addition, the EC50 in data set [1] is 2.82 µM.

In the case of `Cc1cc(-n2nc(Nc3cccc(OC(F)(F)F)c3)cc2CC#N)ccn1` [Compound 107, 1-(2-methyl-4-pyridinyl)-3-[[3-(trifluoromethoxy)phenyl]amino]-1H-pyrazole-5-acetonitrile], the melting point was 180.2 °C. Besides, the EC50 in data set [1] was 2.82 µM.

`COc1cc(Nc2cc(COCc3ccccc3)n(-c3ccnc(C)c3)n2)cc(C(F)(F)F)c1` [Compound 1, N-[3-methoxy-5-(trifluoromethyl)phenyl]-1-(2-methyl-4-pyridinyl)-5-[(phenylmethoxy)methyl]-1H-pyrazol-3-amine] had a melting point of 148.1 °C. In addition, in data set [1], the EC50 is 1.45 µM.

`Cc1cc(-n2nc(Nc3cccc(Cl)c3F)cc2CC#N)ccn1` [Compound 63, 3-[(3-chloro-2-fluorophenyl)amino]-1-(2-methyl-4-pyridinyl)-1H-pyrazole-5-acetonitrile]: in data set [1], the Emax was 434% and the EC50 was 3.89 µM.
